Reference: publication PMC8041284, “Tunable Methacrylamides for Covalent Ligand Directed Release Chemistry” (Journal of the American Chemical Society, 2021)

molecular target: BTK (Homo sapiens, UniProt Q06187); test: biochemical; conditions: read-out: BTK inhibition (%)
Sequence (Q06187 402-655 limits assumed): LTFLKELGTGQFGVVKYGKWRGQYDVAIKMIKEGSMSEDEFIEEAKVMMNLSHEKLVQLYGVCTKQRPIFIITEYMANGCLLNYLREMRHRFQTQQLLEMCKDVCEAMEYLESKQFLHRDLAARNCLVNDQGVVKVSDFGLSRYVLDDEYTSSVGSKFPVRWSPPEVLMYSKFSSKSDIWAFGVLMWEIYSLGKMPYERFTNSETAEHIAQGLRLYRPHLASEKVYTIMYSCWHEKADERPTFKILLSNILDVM

Structure (SMILES)	inhibition at 10 µM [%]
O=C(C[S+]([O-])C(c1ccccc1)c1ccccc1)NO (stereo not shown) [PCM-0216068]	-2.3
OC(c1ccccc1)(c1ccccc1)C1CCNCC1 [PCM-0085781]	-14

same assay, conditions: read-out: BTK inhibition (%), 0.75 uM BTK, […] probe 3l, 15 min preincubation

Structure (SMILES)	inhibition at 10 µM [%]
CCC(C)C(=O)O[C@@H]1[C@@H](OC(C)=O)[C@]2(C)[C@H](C(C)=O)CC[C@@]23O[C@]32CC[C@H]3C[C@@H](O[C@H]4C[C@@H](OC)[C@H](O[C@@H]5O[C@H](C)[C@@H](O)[C@@H](OC)[C@H]5O)[C@@H](C)O4)CC[C@]3(C)[C@@H]12 (stereo partly shown) [PCM-0216595]	-11.6
O=c1[nH]c(=O)n([C@H]2C[C@H](O)[C@@H](CO)O2)cc1F [PCM-0086169]	-3.9
Cc1cccc(-c2[nH]c(C(C)(C)C)nc2-c2ccc3nccnc3c2)n1 [PCM-0065614]	25.5
CC(C)(O)CNc1nc(Nc2ccnc(C(F)(F)F)c2)nc(-c2cccc(C(F)(F)F)n2)n1 [PCM-0215637]	19.3
CN(CC(=O)O)C(N)=NP(=O)(O)O [PCM-0215959]	-5.1
Nc1ncn([C@@H]2O[C@H](CO)[C@@H](O)[C@H]2O)c(=O)n1 [PCM-0064526]	-6.2
O=C(O)CCCCCCCC(O)C(O)CCCCCCO (stereo not shown) [PCM-0215978]	-13.1
Nc1cc(N)c(N)cc1N [PCM-0216082]	31.7
Cc1cc([N+](=O)[O-])ccc1NS(=O)(=O)c1cc(Cl)ccc1Cl [PCM-0215330]	11.6
CNNCc1ccc(C(=O)NC(C)C)cc1 [PCM-0086325]	-17.9
CCS(=O)(=O)Nc1ccc2[nH]c(O)c(C(=Nc3ccc(CN4CCCCC4)cc3)c3ccccc3)c2c1 [PCM-0095089]	82.1
COc1c(C)c(O)cc2[o+]c(-c3ccccc3)ccc12 [PCM-0216513]	38.6
CC1(COc2ccc3c(c2)ncn3-c2ccc3cccc(N4CCC(N)CC4)c3n2)COC1 [PCM-0095459]	6.2
C=C(C)[C@@H]1CC[C@]2(C(=O)O)CC[C@]3(C)[C@H](CC[C@@H]4[C@@]5(C)CCC(=O)C(C)(C)[C@@H]5CC[C@]43C)[C@@H]12 [PCM-0215047]	66.9
CC1(C)CCC(CN2CCN(c3ccc(C(=O)NS(=O)(=O)c4ccc(NCC5CCOCC5)c([N+](=O)[O-])c4)c(Oc4cnc5[nH]ccc5c4)c3)CC2)=C(c2ccc(Cl)cc2)C1 [PCM-0095632]	-5.4
CC(C)c1ccc2c(c1O)CC[C@H]1C3=C(CC[C@]21C)C(=O)OC3 [PCM-0216350]	0.8
CCOC(=O)/C=C/c1ccc(O)c(O)c1 [PCM-0216571]	17.8
NC(N)=NCCC[C@H](N)C(=O)O [PCM-0215193]	2.6
Cc1cn([C@@H]2C[C@@H](O)[C@H](CO)O2)c(=O)[nH]c1=O [PCM-0095099]	-6.2
C[C@@H]1CC[C@@]2(OC1)O[C@H]1C[C@H]3[C@@H]4CC=C5C[C@@H](O[C@@H]6O[C@H](CO)[C@@H](O)[C@H](O[C@@H]7O[C@H](CO)[C@@H](O)[C@H](O)[C@H]7O)[C@H]6O[C@@H]6O[C@@H](C)[C@H](O)[C@@H](O)[C@H]6O)CC[C@]5(C)[C@H]4CC[C@]3(C)[C@H]1[C@@H]2C [PCM-0215006]	-3.1
Nc1ccc(C(=O)NCC(=O)O)cc1 [PCM-0086407]	28
C[C@]12CCC(=O)C=C1[C@@H]1C[C@@H]1[C@H]1[C@@H]3[C@@H]4C[C@@H]4[C@@]4(CCC(=O)O4)[C@@]3(C)CC[C@@H]12 [PCM-0214617]	-15.6
COC(=O)Nc1nc2ccc(Sc3ccccc3)cc2[nH]1 [PCM-0085863]	-7
O=CC[C@@H](O)[C@H](O)[C@H](O)CO [PCM-0214849]	5.4
CCCc1cc(-c2nc(-c3ccc(C)cc3)cs2)ccn1 [PCM-0215677]	6.9
CC(C)c1ccccc1Cc1cc(C(=O)Nc2ccc(S(=O)(=O)c3ccccc3C(C)(C)C)cc2)c(O)c(O)c1O [PCM-0094924]	54.5

Structure (SMILES)	inhibition at 10 µM [%]
CN(C)c1ccc(-c2nc3ncc(Cl)c(N4CCN(CC(=O)Nc5nccs5)CC4)c3[nH]2)cc1 [PCM-0095191]	-2.6
Oc1ccc(CC2NCCc3cc(O)c(O)cc32)cc1 (stereo not shown) [PCM-0214948]	-5.4
O=C(O)[C@H](O)[C@H](O)[C@@H](O)[C@H](O)[C@H](O)CO [PCM-0215251]	-28.9
CCOC(=O)c1ccc(N2NC(=O)/C(=C/c3ccc([N+](=O)[O-])o3)C2=O)cc1 [PCM-0095807]	64.9
CC(=O)OC/C=C(\C)CCC=C(C)C [PCM-0216003]	2.3
FC(F)(F)c1ccc(/C=C/c2nc(COc3ccc(CCCCn4ccnn4)cc3)co2)cc1 [PCM-0095252]	13.1
O=c1[nH]ccc2c(S(=O)(=O)N3CCCNCC3)cccc12 [PCM-0215797]	-2.8
COc1cc(S(=O)(=O)O)ccc1O [PCM-0215143]	-7
C/C(=C\CO)CCC[C@H](C)CCC[C@H](C)CCCC(C)C [PCM-0215913]	3.9
C=CC(C)(O)CCC=C(C)C (stereo not shown) [PCM-0091203]	-9.3
CC(C)[C@H](N)C(=O)OCCOCn1cnc2c(=O)[nH]c(N)nc21 [PCM-0086005]	-7.8
COc1cc2c(cc1O)[C@@H](Cc1ccc(O)c(Oc3ccc(C[C@@H]4c5cc(OC)c(OC)cc5CCN4C)cc3)c1)N(C)CC2 [PCM-0216427]	10.8
CC1CCC(C(=O)N(c2cc(C#CC(C)(C)C)sc2C(=O)O)C2CCC(O)CC2)CC1 (stereo not shown) [PCM-0095160]	2.3
C[S+]([O-])c1ccc(-c2nc(-c3ccc(F)cc3)c(-c3ccncc3)[nH]2)cc1 (stereo not shown) [PCM-0095024]	18.6
O=C(O)c1cccnc1Nc1cccc(C(F)(F)F)c1 [PCM-0064877]	24.1
CCCC(=O)O [PCM-0095272]	0
CC#Cc1cncc(-c2ccc3c(c2)[C@@]2(N=C(C)C(N)=N2)C2(CCC(OC)CC2)C3)c1 (stereo partly shown) [PCM-0215755]	0
NC(=O)NO [PCM-0065169]	10.9
NS(=O)(=O)c1cc(C(=O)O)c(NCc2ccco2)cc1Cl [PCM-0085991]	-2.3
CCOc1nc2cccc(C(=O)O)c2n1Cc1ccc(-c2ccccc2-c2nn[nH]n2)cc1 [PCM-0086226]	24.1
CN=C(NC#N)NCCSCc1nc[nH]c1C [PCM-0214655]	-12.4
Cc1cncc(CN2CCC(=C3c4ccc(Cl)cc4CCc4cccnc43)CC2)c1 [PCM-0095542]	-7.6
CCC(CC)(NC(=O)C(C)C)C(=O)N[C@@H](CCCN=C(N)N)C(=O)NC1(C(=O)NC(c2ccc(F)cc2)c2ccc(F)cc2)CCCC1 [PCM-0215267]	-14.7
C=C1CCOC1=O [PCM-0215909]	0.8
COc1cc(NC(=O)c2ccc(-c3ccc(Cl)cc3)o2)cc(OC)c1 [PCM-0095366]	56.8
CCN1C(=O)CNc2ncc(-c3ccc(-c4ncn[nH]4)nc3C)nc21 [PCM-0215743]	11.7

Structure (SMILES)	inhibition at 10 µM [%]
COC(=O)[C@H](c1ccccc1Cl)N1CCc2sccc2C1 [PCM-0090332]	2.3
CC(C)(C)c1nc(-c2ccc(NC(=O)Nc3cccc(C(F)(F)F)c3)c3ccccc23)c2c(N)nccn12 [PCM-0216026]	79.3
Nc1nc(N)nc(N)n1 [PCM-0216468]	13.9
COc1cc2c(cc1O)C[C@H]1c3c(cc(O)c(OC)c3-2)CCN1C [PCM-0216351]	6.9
CC(C)(O)c1coc(S(=O)(=O)NC(=O)Nc2c3c(cc4c2CCC4)CCC3)c1 [PCM-0215611]	-0.9
CC1(C)S[C@@H]2[C@H](NC(=O)C(C(=O)O)c3ccccc3)C(=O)N2[C@H]1C(=O)O (stereo partly shown) [PCM-0214723]	10.1
O=C1C[C@@H](c2ccc(O[C@@H]3O[C@H](CO)[C@@H](O)[C@H](O)[C@H]3O)cc2)Oc2cc(O)ccc21 [PCM-0214980]	10.9
Cc1ccc(C(=O)Nc2ccc(CN3CCN(C)CC3)c(C(F)(F)F)c2)cc1C#Cc1cnc2cccnn12 [PCM-0095174]	92.4
c1ccc(-c2ccc(C(c3ccccc3)n3ccnc3)cc2)cc1 (stereo not shown) [PCM-0086296]	33.5
c1cnc2cc3c(cc2n1)[C@@H]1CNC[C@H]3C1 [PCM-0064570]	-31.5
Cc1cc(Nc2ncnc3ccc(-c4ccc(CNCCS(C)(=O)=O)o4)cc23)ccc1Oc1ccn2ncnc2c1 [PCM-0095494]	-21.4
O=[N+]([O-])c1ccc(Nc2ccccc2-c2ccccc2)c2nonc12 [PCM-0215806]	74.1
CN1CCN(Cc2ccc(NC(=O)Nc3ccc(Oc4cc(NC(=O)C5CC5)ncn4)cc3)cc2C(F)(F)F)CC1 [PCM-0215388]	79.5
Cc1oc2nc3c(c(NC(=O)CN4CCCC4=O)c2c1C)CCCC3 [PCM-0216053]	12.4
CC1(C)CC[C@]2(C(=O)O)CCC3=C([C@@H](CCl)C[C@@H]4[C@@]5(C)C[C@H](O)[C@H](O)[C@@](C)(C(=O)O)[C@@H]5CC[C@@]34C)[C@@H]2C1 [PCM-0216388]	-4.6
O=C(O)c1cc(O)cc(Cl)c1 [PCM-0216556]	-10
CNCC(=O)c1ccc(O)c(O)c1 [PCM-0090552]	10.9
Cc1cc(-c2cc(C)c(NCCCS(=O)(=O)O)c(C)c2)cc(C)c1N [PCM-0216076]	7.7
O=C(NC1CCOCC1)c1ccc(-c2cc(-c3cn[nH]c3-c3ccccn3)ccn2)cc1 [PCM-0095490]	1.6
CN(C)Cc1ccc(-c2nc3cccc4c3n2CCNC4=O)cc1 [PCM-0095220]	4.8
CN1CCN(c2nc3ccccc3nc2Cl)CC1 [PCM-0095510]	-6.2
Oc1ccc2ccccc2c1SSc1c(O)ccc2ccccc12 [PCM-0065009]	17.2
COc1cc(-n2c(=S)[nH]c3ccccc3c2=O)c(Cl)cc1Cl [PCM-0095750]	29.3
COc1cccc2c1C(=O)c1c(O)c3c(c(O)c1C2=O)C[C@@](O)(C(=O)CO)C[C@@H]3O[C@H]1C[C@H](N)[C@@H](O)[C@H](C)O1 [PCM-0090504]	45.1
COc1cc(-c2ncn(/C=C\C(=O)OC(C)C)n2)cc(C(F)(F)F)c1 [PCM-0215247]	-11.6
